According to patent publication US10806694B2, “Nanoparticles for photodynamic therapy, X-ray induced photodynamic therapy, radiotherapy, radiodynamic therapy, chemotherapy, immunotherapy, and any combination thereof” (The University of Chicago, priority 2014, dated 2020):

How the values were obtained:
[1] = Singlet oxygen generation with Singlet Oxygen Sensor Green (SOSG) under LED irradiation; type: physicochemical; conditions: for k (fitting parameter for 1O2 generation curve): 0.1 W/cm^2, 650 nm LED for DBC-UiO and H2DBC, 640 nm for the others
Protocol: A light-emitting diode (LED) array with peak emission at 640 nm was used as the light source of singlet oxygen generation. The irradiance of LED is 100 mW/cm^2. Singlet oxygen sensor green (SOSG) reagent (Life Technologies, Carlsbad, Calif., United States of America) was employed for the detection of singlet oxygen. H2DBP and DBP-UiO samples were prepared in 5 μM solutions/suspensions in HBSS buffer (for DBP-UiO samples, the concentration was calculated as ligand equivalents). To 2 mL each of these solutions/suspensions, SOSG stock solution (5 μL at 5 mM) was added (final concentration=12.5 μM) before fluorescence measurement.
For a typical measurement, fluorescence intensity was acquired on a spectrofluorophotometer (RF-5301PC, Shimadzu Corporation, Kyoto, Japan) with excitation at 504 nm and emission at 525 nm (slit width 3 nm/5 nm for ex/em). Fluorescence was measured after irradiation by LED for 0 (as background), 10 s, 20 s, 30 s, 1 min, 1.5 min, 2 min, 2.5 min, 3 min, 3.5 min, 4 min, 4.5 min, 5 min, 6 min and 7 min.
Singlet oxygen generation efficiencies of H2DBP and DBP-UiO were determined using Singlet Oxygen Sensor Green (SOSG, Life Technologies). After exposure to a LED light source (peak emission at 640 nm, energy irradiance of 100 mW/cm^2), the […] reagent SOSG reacted with ^1O2 to generate green fluorescence which was quantified with a fluorimeter. The fluorescence intensity was plotted against irradiation time. […] The ^1O2 generation curve was fitted with the following equation: IF=A(1−e^−kt) (1) Where IF is fluorescence intensity and t represents irradiation time while A and k are fitting parameters (for detailed derivations, see SI). […]
Singlet Oxygen Sensor Green (SOSG) was employed to determine ^1O2 generation efficiencies of H2DBC and DBC-UiO. SOSG reacted with generated ^1O2 to give green fluorescence (λem=525 nm) that was quantified with a fluorometer. For comparison, ^1O2 generation efficiency of H2DBP, DBP-UiO and protoporphyrin IX (PpIX) were also determined. […]

[2] = system: CT26 cells; assay: In vitro PDT cytotoxicity; type: cell-based, murine; conditions: with irradiation, LED 90 J/cm^2 (0.1 W/cm^2, 15 min), 640 or 650 nm
Protocol: The tumor cell uptake of NMOFs was evaluated by incubating CT26 cells with DBP-UiO or DBC-UiO at a Hf concentration of 50 μM for 4 h. […] The in vitro PDT efficacy of DBC-UiO against colon cancer cells was investigated and compared with DBP-UiO and their corresponding free ligands. […] DBP-UiO and […]: 640 nm; DBC-UiO and […]: 650 nm). DBC-UiO outperformed DBP-UiO by effectively killing both cancer cell lines at low NMOF and light doses.

[3] = system: CT26 cells; assay: Calreticulin (CRT) surface expression after PDT (immunogenic cell death); type: cell-based, murine; conditions: 5 μM
Protocol: CT26 cells were incubated with 5 μM DBC-UiO or H2DBC followed by light irradiation at 0.1 W/cm^2 for 15 min (90 J/cm^2). The apoptosis induced by PDT treatment was determined with the Alexa Fluor 488 Annexin V/dead cell apoptosis kit by flow cytometry. […] Calreticulin (CRT) is a distinct biomarker exposed on the surface of cells undergoing ICD. The CRT expression was determined by flow cytometry and immunofluorescence to assess the ICD induced by DBC-UiO induced PDT. CT26 cells were treated with 5 μM DBC-UiO or H2DBC followed by light irradiation at 0.1 W/cm^2 for 15 min (90 J/cm^2). For flow cytometry analysis, cells were collected and stained with Alexa Fluor 488-CRT antibody and propidium iodide (PI). The fluorescence intensity of stained cells was gated on PI-negative cells. For immunostaining analysis, the cells were stained with AlexaFluor 488-CRT conjugated antibody and DAPI nuclei stain, and observed using confocal laser scanning microscopy (CLSM).

[4] = system: human head and neck cancer cells SQ20B; assay: In vitro PDT cytotoxicity (MTS); type: cell-based; conditions: 5-100 μM ligand, 640 nm LED 100 mW/cm^2, 15 min (90 J/cm^2) or 30 min (180 J/cm^2)
Protocol: The cytotoxicity of DBP-UiO and H2DBP was evaluated in human head and neck cancer cells SQ20B which are resistant to cisplatin and conventional radiotherapy. SQ20B cells were seeded on 96-well plates at 2000 cells/well. The cells were treated with DBP-UiO and H2DBP at various ligand concentrations (5, 10, 20, 50 and 100 μM base on ligand concentrations) after a 24-h incubation. A further incubation of 4 h was allowed, followed by replacing the culture medium with 100 μL of fresh DMEM/F12 medium. The cells were irradiated with LED light (640 nm) at 100 mW/cm^2 for 15 min (total light dose 90 J/cm^2) or 30 min (total light dose 180 J/cm^2), respectively. The cells without irradiation treatment served as controls. The cells were further incubated to achieve a total incubation time of 72 h with DBP-UiO or H2DBP. The cell viability was detected by (3-(4,5-dimethylthiazol-2-yl)-5-(3-carboxymethoxyphenyl)-2-(4-sulfophenyl)-2H-tetra-zolium) (MTS) assay (Promega, Madison, Wis., United States of America).
To further confirm the PDT efficacy of DBP-UiO, SQ20B cancer cells were treated with H2DBP or DBP-UiO at various concentrations (5, 10, 20, 50 and 100 μM based on ligand concentrations), the cells were irradiated with LED light (640 nm, 100 mW/cm^2) for 15 min (total light dose 90 J/cm^2) or 30 min (total light dose 180 J/cm^2), respectively.

Row | Molecule | k (fitting parameter for 1O2 generation curve) [1] [min⁻¹] | IC50 [2] [µM] | surface CRT expression ([3]; light irradiation 90 J/cm^2) | surface CRT expression ([3]; without light irradiation) | k (singlet oxygen generation rate) ([1]; 5 μM in HBSS, 640 nm LED 100 mW/cm^2, listed as DBP) [s⁻¹] | PDT efficacy (cell viability) [4]
1 | 5, 15-di(p-benzoato)chlorin [H2DBC] | 0.25 | 8.5 ± 0.1 | significant amounts of CRT were detected | no surface CRT expression |  | 
2 | O=C(O)c1ccc(-c2c3nc(cc4ccc([nH]4)c(-c4ccc(C(=O)O)cc4)c4nc(cc5ccc2[nH]5)C=C4)C=C3)cc1 [H2DBP, 5,15-di(p-benzoato)porphyrin] | 0.06 | 20 ± 3.1 |  |  | 0.0015 | moderate PDT efficacy only at 20 μM dose with 30 min light irradiation
